Source: US20250206757A1 (GASHERBRUM BIO, INC., priority 2022, published 2025)

What follows are compounds tested against GLP-1 Receptor (Homo sapiens, UniProt P43220) (assay: GLP-1R agonist cAMP stimulation assay (HEK293/GLP1R/CRE-LUC cells, HTRF cAMP dynamic 2 kit)). Details: HEK293/CRE-Luc cell line stably expressing the GLP-1 Receptor; 30 min incubation at 37° C.
Chain of GLP-1 Receptor (P43220 24-463): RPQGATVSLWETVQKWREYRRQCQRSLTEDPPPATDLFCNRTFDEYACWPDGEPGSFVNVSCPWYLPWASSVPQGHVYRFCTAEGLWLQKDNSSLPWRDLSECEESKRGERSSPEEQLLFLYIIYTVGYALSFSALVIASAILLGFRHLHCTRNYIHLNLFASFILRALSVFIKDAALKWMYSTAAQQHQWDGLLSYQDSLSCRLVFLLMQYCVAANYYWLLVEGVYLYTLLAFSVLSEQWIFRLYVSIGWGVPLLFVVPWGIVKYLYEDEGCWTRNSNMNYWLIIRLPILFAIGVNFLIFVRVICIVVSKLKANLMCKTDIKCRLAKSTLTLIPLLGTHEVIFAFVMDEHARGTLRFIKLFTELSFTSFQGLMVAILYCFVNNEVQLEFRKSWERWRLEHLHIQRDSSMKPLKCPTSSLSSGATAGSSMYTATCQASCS
Format: cell-based
Outline: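 HEK293 cells stably expressing GLP-1R with CRE-Luc, 1000 cells/well in DPBS with 0.5 mM IBMX and 0.10% BSA, exposed to half-log compound dilutions for 30 min at 37 °C. cAMP measured by HTRF (665/615 nm) after 1 h at room temperature.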
`Cc1cc2c(nc1OCc1ccc(Cl)cc1F)CN(Cc1nc3cc(-c4nnc(C(F)F)[nH]4)cnc3n1C[C@@H]1CCO1)CC2` [Compound 52, 2-[(4-chloro-2-fluorophenyl)methoxy]-7-({6-[5-(difluoromethyl)-4H-1,2,4-triazol-3-yl]-3-{[(2S)-oxetan-2-yl]methyl}-3H-imidazo[4,5-b]pyridin-2-yl}methyl)-3-methyl-5,6,7,8-tetrahydro-1,7-naphthyridine] gave an EC50 of less than 1 nM.
With `N#Cc1nnc(-c2cc3nc(CN4CCc5cc(Cl)c(OCc6c(F)cc(Cl)cc6F)nc5C4)n(C[C@@H]4CCO4)c3cn2)[nH]1` [Compound 9, 5-[2-({3-chloro-2-[(4-chloro-2,6-difluorophenyl)methoxy]-5,6,7,8-tetrahydro-1,7-naphthyridin-7-yl}methyl)-3-{[(2S)-oxetan-2-yl]methyl}-3H-imidazo[4,5-c]pyridin-6-yl]-4H-1,2,4-triazole-3-carbonitrile] the EC50 was less than 1 nM.
Compound `O=C(O)CCn1cc(-c2cnc3c(c2)nc(CN2CCc4cc(C(F)(F)F)c(OCc5ccc(Cl)cc5F)nc4C2)n3C[C@@H]2CCO2)nn1` [Compound 99, 3-{4-[2-({2-[(4-chloro-2-fluorophenyl)methoxy]-3-(trifluoromethyl)-5,6,7,8-tetrahydro-1,7-naphthyridin-7-yl}methyl)-3-{[(2S)-oxetan-2-yl]methyl}-3H-imidazo[4,5-b]pyridin-6-yl]-1H-1,2,3-triazol-1-yl}propanoic acid] has an EC50 of 1 to 300 nM.
`Fc1cc(Cl)ccc1COc1nc2c(cc1C(F)(F)F)CCN(Cc1nc3cc(-c4nnc(C(F)(F)F)[nH]4)ncc3n1C[C@@H]1CCOC1)C2` [Compound 77, 2-[(4-chloro-2-fluorophenyl)methoxy]-7-[(3-{1[(3S)-oxolan-3-yl]methyl}-6-[5-(trifluoromethyl)-4H-1,2,4-triazol-3-yl]-3H-imidazo[4,5-c]pyridin-2-yl)methyl]-3-(trifluoromethyl)-5,6,7,8-tetrahydro-1,7-naphthyridine] gave an EC50 of 1 to 300 nM.
With `N#CC1(Cc2cc(-c3nnc(C(F)(F)F)[nH]3)cnc2CN2CCc3cc(Cl)c(OCc4ccc(Cl)cc4F)nc3C2)CC1` [Compound 11, 1-{[2-({3-chloro-2-[(4-chloro-2-fluorophenyl)methoxy]-5,6,7,8-tetrahydro-1,7-naphthyridin-7-yl}methyl)-5-[5-(trifluoromethyl)-4H-1,2,4-triazol-3-yl]pyridin-3-yl]methyl}cyclopropane-1-carbonitrile] the EC50 was greater than 300 nM.
Work on `NC(=O)c1nnc(-c2cc3nc(CN4CCc5cc(C(F)(F)F)c(OCc6ccc(Cl)cc6F)nc5C4)n(C[C@@H]4CCO4)c3cn2)[nH]1` [Compound 43, 5-[2-({2-[(4-chloro-2-fluorophenyl)methoxy]-3-(trifluoromethyl)-5,6,7,8-tetrahydro-1,7-naphthyridin-7-yl}methyl)-3-{[(2S)-oxetan-2-yl]methyl}-3H-imidazo[4,5-c]pyridin-6-yl]-4H-1,2,4-triazole-3-carboxamide] yielded an EC50 of less than 1 nM.
For `O=c1[nH]c(-c2ccc3nc(CN4CCc5ccc(OCc6ccc(Cl)cc6F)nc5C4)n(C[C@@H]4CCO4)c3c2)no1` [Compound 2, (S)-3-(2-((2-((4-chloro-2-fluorobenzyl)oxy)-5,8-dihydro-1,7-naphthyridin-7(6H)-yl)methyl)-1-(oxetan-2-ylmethyl)-1H-benzo[d]imidazol-6-yl)-1,2,4-oxadiazol-5(4H)-one], the EC50 was 1 to 300 nM.
For `Cc1cc2c(nc1OCc1c(F)cc(Cl)cc1F)CN(Cc1nc3cc(-c4noc(=O)[nH]4)ncc3n1C[C@@H]1CCO1)CC2` [Compound 34, 3-[2-({2-[(4-chloro-2,6-difluorophenyl)methoxy]-3-methyl-5,6,7,8-tetrahydro-1,7-naphthyridin-7-yl}methyl)-3-{[(2S)-oxetan-2-yl]methyl}-3H-imidazo[4,5-c]pyridin-6-yl]-4,5-dihydro-1,2,4-oxadiazol-5-one], the EC50 was less than 1 nM.
Compound `Fc1cc(Cl)ccc1COc1nc2c(cc1C1CC1)CCN(Cc1nc3cc(-c4nnc(C(F)(F)F)[nH]4)cnc3n1C[C@@H]1CCO1)C2` [Compound 3, 2-[(4-chloro-2-fluorophenyl)methoxy]-3-cyclopropyl-7-[(3-{[(2S)-oxetan-2-yl]methyl}-6-[5-(trifluoromethyl)-4H-1,2,4-triazol-3-yl]-3H-imidazo[4,5-b]pyridin-2-yl)methyl]-5,6,7,8-tetrahydro-1,7-naphthyridine] has an EC50 of 1 to 300 nM.
Compound `N#Cc1nnc(-c2cnc3c(c2)nc(CN2CCc4cc(C(F)(F)F)c(OCc5ccc(Cl)cc5F)nc4C2)n3C[C@@H]2CCO2)[nH]1` [Compound 17, 5-[2-({2-[(4-chloro-2-fluorophenyl)methoxy]-3-(trifluoromethyl)-5,6,7,8-tetrahydro-1,7-naphthyridin-7-yl}methyl)-3-{1[(2S)-oxetan-2-yl]methyl}-3H-imidazo[4,5-b]pyridin-6-yl]-4H-1,2,4-triazole-3-carbonitrile] has an EC50 of less than 1 nM.
Work on `COCCn1c(CN2CCc3cc(C(F)(F)F)c(OCc4ccc(Cl)cc4F)nc3C2)nc2cc(-c3nnc(C(F)(F)F)[nH]3)ncc21` [Compound 80, 2-[(4-chloro-2-fluorophenyl)methoxy]-7-{[3-(2-methoxyethyl)-6-[5-(trifluoromethyl)-4H-1,2,4-triazol-3-yl]-3H-imidazo[4,5-c]pyridin-2-yl]methyl}-3-(trifluoromethyl)-5,6,7,8-tetrahydro-1,7-naphthyridine] yielded an EC50 of 1 to 300 nM.
`N#Cc1cc2c(nc1OCc1c(F)cc(Cl)cc1F)CN(Cc1nc3cc(-c4nnc(C(F)F)[nH]4)ncc3n1C[C@@H]1CCO1)CC2` [Compound 69, 2-[(4-chloro-2,6-difluorophenyl)methoxy]-7-({6-[5-(difluoromethyl)-4H-1,2,4-triazol-3-yl]-3-{[(2S)-oxetan-2-yl]methyl}-3H-imidazo[4,5-c]pyridin-2-yl}methyl)-5,6,7,8-tetrahydro-1,7-naphthyridine-3-carbonitrile] gave an EC50 of less than 1 nM.
With `Fc1cc(Cl)ccc1COc1nc2cc(Cc3nc4cc(-c5nnc(C(F)(F)F)[nH]5)ncc4n3C[C@@H]3CCO3)ccc2cc1C(F)(F)F` [Compound 98, 2-[(4-chloro-2-fluorophenyl)methoxy]-7-[(3-{[(2S)-oxetan-2-yl]methyl}-6-[5-(trifluoromethyl)-4H-1,2,4-triazol-3-yl]-3H-imidazo[4,5-c]pyridin-2-yl)methyl]-3-(trifluoromethyl)quinoline] the EC50 was less than 1 nM.
For `O=c1[nH]c(-c2cc3nc(CN4CCc5cc(C(F)(F)F)c(NCc6c(F)cc(Cl)cc6F)nc5C4)n(C[C@@H]4CCO4)c3cn2)no1` [Compound 105, 3-{2-[(2-{[(4-chloro-2,6-difluorophenyl)methyl]amino}-3-(trifluoromethyl)-5,6,7,8-tetrahydro-1,7-naphthyridin-7-yl)methyl]-3-{[(2S)-oxetan-2-yl]methyl}-3H-imidazo[4,5-c]pyridin-6-yl}-4,5-dihydro-1,2,4-oxadiazol-5-one], the EC50 was less than 1 nM.
